The source of these data is ChEMBL document CHEMBL4602719, “Discovery of Potent, Selective, and Orally Bioavailable Inhibitors of USP7 with In Vivo Antitumor Activity” (J Med Chem, 2020).

Data set [1] is described as follows: AUC in NOD/SCID mouse at 30 mg/kg, po. In kind it is ADME, organism-based. The conditions noted are these: in vivo.
The nature of data set [2]: Cytotoxicity against human RKO cells assessed as reduction in cellular ATP level measured after 5 days by CellTiter-Glo assay. In kind it is cell-based.
Data set [3] concerns MM1.S. As to the kind of experiment: Antitumor activity against human MM1S cells xenografted in NOD/SCID mouse assessed as tumor growth inhibition at 50 mg/kg, po administered twice daily and measured twice per week relative to control. Format: functional. The conditions noted are these: read-out: TGI.
Data set [4] in a line: Toxicity in NOD/SCID mouse xenografted with human MM1S cells assessed as decrease in body weight at 50 mg/kg, po administered twice daily and measured twice per week relative to control. In kind it is organism-based. On the set-up: scale not given: the % may be the effect or the level left. The conditions noted are these: in vivo.
For data set [5], the system named is NCI-H526. The conditions noted are these: Homo sapiens.
Description: Antitumor activity against human NCI-H526 cells xenografted in athymic nu/nu mouse assessed as tumor growth inhibition at 50 mg/kg, po administered twice daily for 24 days and measured twice per week
In data set [6] the test system is NCI-H526. As to the kind of experiment: Cytotoxicity against human NCI-H526 cells expressing p53 mutant assessed as reduction in cell viability measured after 5 days by CellTiter-Glo assay. In kind it is functional. The conditions noted are these: NCI-H526, 120 h.
Data set [7] can be described thus: Protein binding in mouse plasma by ultracentrifugation method. Format: ADME, cell-free. The conditions noted are these: read-out: PPB (converted).
Data set [8] addresses T1, Ubiquitin carboxyl-terminal hydrolase 7 (Homo sapiens, UniProt Q93009). As to the kind of experiment: Inhibition of recombinant full length USP7 (unknown origin) using ubiquintin-rhodamine as substrate preincubated for 30 mins followed by substrate addition measured after 1 hr by fluorescence-based Envision plate reader assay.
A short description of data set [9]: AUC in nude mouse at 30 mg/kg, po. In kind it is ADME, organism-based. The conditions noted are these: in vivo.
In data set [10] the target is T1, Ubiquitin carboxyl-terminal hydrolase 7. As to the kind of experiment: Inhibition of USP7 in human RKO cells transfected with p53 luciferase reporter vector assessed as increase in p53-dependent luciferase activity measured after 18 hrs by BrightGlo luciferase assay. In kind it is cell-based.
The nature of data set [11]: AUC in BALB/c mouse at 30 mg/kg, po. In kind it is ADME, organism-based. The conditions noted are these: in vivo.
The target of data set [12] is Voltage-gated inwardly rectifying potassium channel KCNH2 (Homo sapiens, UniProt Q12809). As to the kind of experiment: Inhibition of human ERG.
Chain of Voltage-gated inwardly rectifying potassium channel KCNH2 (Q12809 whole entry): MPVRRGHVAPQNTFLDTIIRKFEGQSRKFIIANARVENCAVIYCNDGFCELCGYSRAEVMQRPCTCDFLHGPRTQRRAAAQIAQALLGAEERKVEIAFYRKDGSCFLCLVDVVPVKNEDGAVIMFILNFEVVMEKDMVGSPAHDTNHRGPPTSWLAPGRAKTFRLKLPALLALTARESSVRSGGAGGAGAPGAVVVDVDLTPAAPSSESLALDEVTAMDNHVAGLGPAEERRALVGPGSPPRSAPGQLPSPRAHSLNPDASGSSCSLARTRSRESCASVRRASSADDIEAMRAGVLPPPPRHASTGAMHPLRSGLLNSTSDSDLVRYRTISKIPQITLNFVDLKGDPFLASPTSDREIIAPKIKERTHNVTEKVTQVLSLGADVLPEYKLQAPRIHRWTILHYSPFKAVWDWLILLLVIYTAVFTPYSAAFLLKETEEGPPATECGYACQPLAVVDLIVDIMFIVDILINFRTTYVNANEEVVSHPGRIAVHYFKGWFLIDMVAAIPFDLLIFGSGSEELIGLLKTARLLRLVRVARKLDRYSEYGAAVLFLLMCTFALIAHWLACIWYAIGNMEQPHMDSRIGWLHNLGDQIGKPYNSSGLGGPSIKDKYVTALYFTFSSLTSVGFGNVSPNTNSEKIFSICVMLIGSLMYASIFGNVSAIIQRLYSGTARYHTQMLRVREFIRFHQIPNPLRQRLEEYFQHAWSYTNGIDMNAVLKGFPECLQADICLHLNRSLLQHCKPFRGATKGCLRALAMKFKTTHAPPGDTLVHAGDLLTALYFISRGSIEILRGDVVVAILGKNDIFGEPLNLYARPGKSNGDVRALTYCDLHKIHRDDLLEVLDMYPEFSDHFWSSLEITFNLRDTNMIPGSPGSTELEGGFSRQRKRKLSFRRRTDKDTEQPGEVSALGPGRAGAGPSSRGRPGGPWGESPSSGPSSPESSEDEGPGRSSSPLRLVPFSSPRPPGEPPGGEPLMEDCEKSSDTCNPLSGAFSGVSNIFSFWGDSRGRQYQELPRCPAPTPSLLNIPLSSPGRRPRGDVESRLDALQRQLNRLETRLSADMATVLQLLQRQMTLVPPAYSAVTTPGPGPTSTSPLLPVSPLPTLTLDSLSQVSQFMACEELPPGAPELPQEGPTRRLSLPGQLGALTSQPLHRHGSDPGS
In data set [13] the test system is MM1.S. Put plainly: Cytotoxicity against human MM1S cells expressing wild type p53 assessed as reduction in cell viability measured after 5 days by CellTiter-Glo assay. Format: functional. The conditions noted are these: 120 h.
Data set [14] deals with T2, Ubiquitin carboxyl-terminal hydrolase 1 (Homo sapiens, UniProt O94782).
T2 sequence (O94782 whole entry): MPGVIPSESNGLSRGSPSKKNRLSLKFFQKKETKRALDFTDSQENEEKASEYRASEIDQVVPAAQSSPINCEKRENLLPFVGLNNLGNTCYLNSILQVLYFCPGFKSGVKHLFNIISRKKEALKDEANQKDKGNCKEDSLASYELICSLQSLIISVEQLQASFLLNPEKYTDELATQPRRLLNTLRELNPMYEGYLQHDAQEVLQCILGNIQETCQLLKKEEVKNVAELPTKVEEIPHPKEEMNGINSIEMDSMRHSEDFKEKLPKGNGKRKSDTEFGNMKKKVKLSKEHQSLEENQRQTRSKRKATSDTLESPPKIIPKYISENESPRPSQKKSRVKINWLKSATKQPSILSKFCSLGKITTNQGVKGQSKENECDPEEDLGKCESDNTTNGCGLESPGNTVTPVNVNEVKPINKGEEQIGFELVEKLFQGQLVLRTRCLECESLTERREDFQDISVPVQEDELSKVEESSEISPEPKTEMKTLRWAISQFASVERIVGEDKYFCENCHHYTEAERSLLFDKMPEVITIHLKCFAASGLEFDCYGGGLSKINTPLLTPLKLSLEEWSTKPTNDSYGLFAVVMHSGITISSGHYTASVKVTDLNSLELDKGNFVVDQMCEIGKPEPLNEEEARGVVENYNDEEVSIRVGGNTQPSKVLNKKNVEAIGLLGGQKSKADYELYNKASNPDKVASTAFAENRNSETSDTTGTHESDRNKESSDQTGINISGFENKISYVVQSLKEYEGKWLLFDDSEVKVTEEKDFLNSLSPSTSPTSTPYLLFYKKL
As to the kind of experiment: Inhibition of His6-tagged human USP1 expressed in insect Sf21 cells coexpressing untagged UAF1 assessed as cleavage of Ubiquitin-Rhodamine110-glycine to Ubiquitin and Rhodamine110-glycine using Ubiquitin-Rhodamine110-glycine as substrate by fluorescence based analysis.

In data set [15] the target is T3, Ubiquitin carboxyl-terminal hydrolase 47 (Homo sapiens, UniProt Q96K76).
T3 sequence (Q96K76 whole entry): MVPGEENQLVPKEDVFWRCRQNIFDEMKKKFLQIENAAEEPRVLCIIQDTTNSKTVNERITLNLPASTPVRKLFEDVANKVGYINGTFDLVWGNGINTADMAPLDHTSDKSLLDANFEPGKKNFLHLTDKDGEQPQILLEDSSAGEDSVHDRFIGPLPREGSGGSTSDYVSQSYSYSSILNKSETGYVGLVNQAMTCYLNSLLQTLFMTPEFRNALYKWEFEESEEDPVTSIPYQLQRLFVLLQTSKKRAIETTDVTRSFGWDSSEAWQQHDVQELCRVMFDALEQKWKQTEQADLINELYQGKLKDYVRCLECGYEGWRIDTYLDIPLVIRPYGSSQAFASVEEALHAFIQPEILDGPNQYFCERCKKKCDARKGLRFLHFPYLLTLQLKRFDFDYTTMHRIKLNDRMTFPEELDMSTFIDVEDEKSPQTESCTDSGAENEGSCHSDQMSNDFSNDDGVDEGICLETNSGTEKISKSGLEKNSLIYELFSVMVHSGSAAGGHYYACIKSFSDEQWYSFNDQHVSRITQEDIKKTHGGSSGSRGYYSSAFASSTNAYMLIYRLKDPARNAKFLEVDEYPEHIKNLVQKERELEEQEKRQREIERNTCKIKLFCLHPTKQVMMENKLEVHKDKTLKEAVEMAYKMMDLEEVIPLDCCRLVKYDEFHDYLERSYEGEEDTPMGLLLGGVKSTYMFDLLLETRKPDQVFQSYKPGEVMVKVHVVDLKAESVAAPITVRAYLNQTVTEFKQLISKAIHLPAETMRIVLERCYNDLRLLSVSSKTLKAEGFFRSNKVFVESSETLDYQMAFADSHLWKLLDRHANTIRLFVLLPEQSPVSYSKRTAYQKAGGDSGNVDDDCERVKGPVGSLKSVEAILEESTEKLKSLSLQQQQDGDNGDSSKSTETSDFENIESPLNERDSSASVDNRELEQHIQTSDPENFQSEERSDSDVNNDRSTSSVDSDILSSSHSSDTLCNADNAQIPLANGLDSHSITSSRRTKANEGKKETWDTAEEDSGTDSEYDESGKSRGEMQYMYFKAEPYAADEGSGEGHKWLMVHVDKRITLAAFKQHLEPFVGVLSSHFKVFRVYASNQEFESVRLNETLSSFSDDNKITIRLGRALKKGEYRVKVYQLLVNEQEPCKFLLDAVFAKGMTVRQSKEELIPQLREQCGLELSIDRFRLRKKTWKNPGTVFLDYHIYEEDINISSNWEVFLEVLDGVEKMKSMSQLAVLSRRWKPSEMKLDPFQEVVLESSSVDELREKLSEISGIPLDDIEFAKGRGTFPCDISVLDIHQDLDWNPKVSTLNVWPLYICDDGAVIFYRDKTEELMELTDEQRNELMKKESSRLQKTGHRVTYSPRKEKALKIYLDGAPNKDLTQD
Put plainly: Inhibition of USP47 (unknown origin) by biochemical assay.

The target of data set [16] is T4, Ubiquitin carboxyl-terminal hydrolase isozyme L3 (Homo sapiens, UniProt P15374).
T4 sequence (P15374 whole entry): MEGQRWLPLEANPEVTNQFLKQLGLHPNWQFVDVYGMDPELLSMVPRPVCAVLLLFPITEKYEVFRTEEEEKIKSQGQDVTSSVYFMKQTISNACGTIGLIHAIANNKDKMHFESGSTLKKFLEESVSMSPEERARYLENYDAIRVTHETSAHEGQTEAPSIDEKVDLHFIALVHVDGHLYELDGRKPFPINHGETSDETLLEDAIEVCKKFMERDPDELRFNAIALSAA
As to the kind of experiment: Inhibition of human GST-tagged UCHL3 expressed in Escherichia coli assessed as cleavage of Ubiquitin-Rhodamine110-glycine to Ubiquitin and Rhodamine110-glycine using Ubiquitin-Rhodamine110-glycine as substrate by fluorescence based analysis.

The source made the active and inactive calls. The calls are words filed in the database; no cut-off is given here. Some results are limits rather than exact numbers.

T1 sequence (Q93009 whole entry): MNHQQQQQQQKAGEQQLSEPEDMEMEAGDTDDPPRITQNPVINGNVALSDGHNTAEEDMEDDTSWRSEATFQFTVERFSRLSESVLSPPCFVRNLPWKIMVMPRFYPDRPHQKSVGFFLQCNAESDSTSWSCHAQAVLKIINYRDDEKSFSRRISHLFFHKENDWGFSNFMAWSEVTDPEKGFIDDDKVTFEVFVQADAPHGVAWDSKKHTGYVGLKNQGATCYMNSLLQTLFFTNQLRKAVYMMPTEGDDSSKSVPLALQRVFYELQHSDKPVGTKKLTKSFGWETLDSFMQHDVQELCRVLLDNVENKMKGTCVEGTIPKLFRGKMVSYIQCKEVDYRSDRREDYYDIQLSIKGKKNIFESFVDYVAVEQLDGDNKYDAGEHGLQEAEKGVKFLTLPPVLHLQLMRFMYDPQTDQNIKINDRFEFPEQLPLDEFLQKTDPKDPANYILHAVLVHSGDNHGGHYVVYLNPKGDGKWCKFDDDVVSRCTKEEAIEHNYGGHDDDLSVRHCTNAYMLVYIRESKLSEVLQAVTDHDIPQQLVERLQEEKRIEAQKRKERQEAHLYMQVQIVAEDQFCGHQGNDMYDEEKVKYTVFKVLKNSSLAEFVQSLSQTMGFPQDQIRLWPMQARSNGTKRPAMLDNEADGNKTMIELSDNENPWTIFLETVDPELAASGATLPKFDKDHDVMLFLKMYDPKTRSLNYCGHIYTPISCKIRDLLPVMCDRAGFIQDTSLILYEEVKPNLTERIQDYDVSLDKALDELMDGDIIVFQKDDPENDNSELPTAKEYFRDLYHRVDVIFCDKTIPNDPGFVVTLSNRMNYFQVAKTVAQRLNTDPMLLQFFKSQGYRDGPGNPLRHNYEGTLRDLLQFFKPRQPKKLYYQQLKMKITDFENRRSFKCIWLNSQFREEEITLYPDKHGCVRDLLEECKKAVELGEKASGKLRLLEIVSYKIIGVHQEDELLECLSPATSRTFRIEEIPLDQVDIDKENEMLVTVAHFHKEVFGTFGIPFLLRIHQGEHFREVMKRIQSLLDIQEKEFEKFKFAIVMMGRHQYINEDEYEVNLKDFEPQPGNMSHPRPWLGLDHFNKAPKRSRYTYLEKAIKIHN

As to `Cc1cc(Cl)cc(-c2ccnc3cc(CN4C(=O)C5C(C4=O)C5(C)C)sc23)c1C[C@@H]1CNCCO1` (stereo not given in full), the AUC in data set [1] turned out to be 5500 ng·h/mL; in [9], 4600 ng·h/mL; in data set [11], 9400 ng·h/mL. Also, the CC50 at 120 h in data set [2] turned out to be 13000 nM. The inhibition in vivo at 50 mg/kg in data set [3] was 100%. Also, the Activity in data set [4] was under 90%. Besides, in data set [5], the TGI entry was “Active”. Further, the CC50 in data set [6] came to 450 nM; in data set [13], 89 nM. For the same compound, the fraction unbound in data set [7] was 0.047. Also, the IC50 in data set [8] is 0.44 nM; in data set [12], 4200 nM. Moreover, the EC50 in data set [10] stood at 25 nM.

With `Cc1cc(Cl)cc(-c2ccnc3cc(CN4C(=O)C5CC5C4=O)sc23)c1C[C@@H]1CNCCO1` (stereo not given in full), the CC50 in data set [6] was found to be 3600 nM; in [13], 210 nM. The IC50 in [8] turned out to be 0.16 nM; in data set [12], 8000 nM. Further, the concentration for a half-maximal effect (EC50) in [10] was found to be 35 nM.

With `Cc1cc(Cl)cc(-c2ccnc3cc(CN4C(=O)CCC4=O)sc23)c1CN1[C@@H](C)CNC[C@@H]1C`, the half-maximal cytotoxic concentration (CC50) in data set [6] amounted to 2200 nM; in data set [13], 135 nM. The IC50 in data set [8] turned out to be 0.32 nM; in [12], 2700 nM. Moreover, the EC50 in [10] turned out to be 60 nM.

On to `Nc1cc(-c2cc(Cl)cc3c2OC(C(=O)N2CCNCC2)C3)ccn1` (racemic), for which the IC50 in [14] is over 80000 nM; in data set [15], over 80000 nM; in [8], 5600 nM; in data set [16], over 80000 nM.

Turning to `CC(Cc1ccccc1)C(=O)N1CCC(O)(Cn2cnc3ccccc3c2=O)CC1` (stereo not given), the IC50 in data set [14], in data set [15] and in [16] was over 80000 nM in each case.
